Measurements from publication PMC3871636 (PLoS ONE, 2013).

Legend:
[1] = biological target: T1, double-labeled CYP3A4 C64/C121-DY/ER (Homo sapiens, UniProt P08684, A121C/C239S/C377S/C468A/C98S/S18F); test: Steady-state LRET titration (delayed emission); details: Table S2; protein C64/C121-ER/DY; same ligand concentrations
Procedure: (§1) All absorbance and fluorescence assays (including the time-resolved fluorescence measurements) were performed at a protein concentration ≤1 µM at 25°C with continuous stirring. Absorbance spectra were recorded with an S2000 rapid scanning CCD spectrometer (Ocean Optics). Ligand binding assays were done in 100 mM Na-Hepes buffer, pH 7.4, containing 0.5 mM EDTA.
(§2) Fluorescence-based ligand binding assays were done under anaerobic conditions. Anaerobiosis was achieved using an oxygen-scavenging system consisting of protecatechuate-3,4-dioxygenase (0.5 units/ml) and 5 mM protocatechuic acid. The steady state and time-resolved phosphorescence measurements were performed with the use of a Cary Eclipse fluorescence spectrophotometer (Varian/Agilent Technologies). The excitation wavelength was set to 540 nm. Spectra were taken from 650 to 860 nm with 100 µs delay.
(§3) Quantitative interpretation of LRET results was also based on the use of PCA applied to a series of emission spectra normalized on integral intensity. […] Intensity of the donor and acceptor fluorescence obtained in this way were used in determination of the efficiency of steady-state LRET using the equation [drawing 1] (Eq.1) where I ad is emission intensity of the acceptor, I da is the residual donor emission in the presence of acceptor (I da), Φ a and Φ d are the quantum yield of the fluorescence of acceptor and the quantum yield of the phosphorescence of donor, respectively.
(§4) Distances were calculated using the equation: [drawing 3] (Eq.3) where R 0 is the Förster distance, and R is the distance between the donor and acceptor. R 0 was calculated with the use of PhotoChemCad software. In these calculations, we used the values of the orientation factor (κ^2) and the refractive index (n) of 0.667 and 1.4, respectively.
(§5) When fitting the results of titration experiments, where the changes in the monitored signal A S (fraction of the enzyme in the high-spin state, intensity or the lifetime of the donor phosphorescence at a given substrate concentration) were assumed to be proportional to [ES], this equation was complemented with the offset A 0 and the scaling factor A max to yield the following relationship: [drawing 5] (Eq.5)

[2] = biological target: T1, double-labeled CYP3A4 C64/C121-DY/ER; test: Time-resolved LRET (phosphorescence lifetime measurements)
Procedure: as §1, §2
The treatment of the time-resolved decay traces was performed using a bi-exponential approximation. The efficiency of time-resolved LRET was calculated using the equation [drawing 2] (Eq.2)
In this equation τda and τd designate the average lifetime of the excited state of the donor in the presence and absence of the acceptor, respectively. These average lifetimes are determined as τ = α1τ1+α2τ2, where τ1,2 and α1,2 stay for the lifetime and the relative amplitude of each of the two exponential terms. In our calculations of the lifetime in double-labeled C64/C468, C377/C468 and C64/C121 proteins we used the lifetimes of phosphorescence measured with the respective proteins labeled with ERIA at a label:protein ratio 2∶1 as the estimates of τd.
as §4

[3] = biological target: CYP3A4 (double-labeled (C64/C468)-DY/ER) (Homo sapiens, UniProt P08684, form not given/S18F); test: Steady-state LRET titration (delayed emission); type: binding; details: human, purified double-labeled CYP3A4 C64/C468-DY/ER protein, pH 7.4
CYP3A4 (double-labeled (C64/C468)-DY/ER), sequence (P08684 13-503 S18F, form open): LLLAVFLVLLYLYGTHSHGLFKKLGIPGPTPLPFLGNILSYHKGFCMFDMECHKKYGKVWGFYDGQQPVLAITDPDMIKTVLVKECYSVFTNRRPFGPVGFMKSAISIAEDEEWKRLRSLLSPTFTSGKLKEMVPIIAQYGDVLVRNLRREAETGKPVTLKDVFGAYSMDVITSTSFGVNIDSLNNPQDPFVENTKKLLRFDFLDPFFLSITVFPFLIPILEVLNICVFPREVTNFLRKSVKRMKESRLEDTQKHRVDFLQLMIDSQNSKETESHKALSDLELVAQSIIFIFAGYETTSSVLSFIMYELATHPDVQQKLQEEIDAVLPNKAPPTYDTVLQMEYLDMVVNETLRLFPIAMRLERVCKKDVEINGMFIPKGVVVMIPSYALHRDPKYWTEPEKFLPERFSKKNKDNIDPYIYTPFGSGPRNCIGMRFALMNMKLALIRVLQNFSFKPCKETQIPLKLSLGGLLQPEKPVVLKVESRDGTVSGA
Procedure: as §1, §2, §3, §4, §5

[4] = biological target: T2, double-labeled CYP3A4 (C64/C468)-ER/DY (Homo sapiens, UniProt P08684, S18F, form not given); test: Steady-state LRET titration (delayed emission); type: binding
T2 sequence (P08684 13-503 S18F, form open): as above
Procedure: as §1, §2, §3, §4, §5

[5] = biological target: T3, double-labeled CYP3A4 (C64/C468)-DY/ER (Homo sapiens, UniProt P08684, S18F, form not given); test: Steady-state LRET titration (delayed emission); type: binding
T3 sequence (P08684 13-503 S18F, form open): as above
Procedure: as §1, §2, §3, §4, §5

[6] = biological target: T4, double-labeled CYP3A4 C377/C468-DY/ER (Homo sapiens, UniProt P08684, S18F, form not given); test: Steady-state LRET titration (delayed emission); type: binding; details: Table S2; protein C377/C468-ER/DY; same ligand concentrations
T4 sequence (P08684 13-503 S18F, form open): as above
Procedure: as §1, §2, §3, §4, §5

[7] = biological target: CYP3A4 (double-labeled (C64/C468)-ER/DY) (Homo sapiens, UniProt P08684, form not given/S18F); test: Steady-state LRET titration (delayed emission); type: binding; details: human, purified double-labeled CYP3A4 C64/C468-ER/DY protein, pH 7.4
CYP3A4 (double-labeled (C64/C468)-ER/DY), sequence (P08684 13-503 S18F, form open): as above
Procedure: as §1, §2, §3, §4, §5

[8] = biological target: CYP3A4 (C377/C468 mutant) (Homo sapiens, UniProt P08684, form not given/S18F); test: Ligand-induced spin shift, absorbance titration; type: binding; details: human, purified CYP3A4(C377/C468) mutant protein, pH 7.4
CYP3A4 (C377/C468 mutant), sequence (P08684 13-503 S18F, form open): as above
Procedure: as §1
(§6) Absorbance spectra obtained in titration experiments were analyzed with a principal component analysis (PCA) procedure complemented with least-square approximation of the principal vectors with a combination of the prototypical spectra of the CYP3A4 low-spin, high-spin and Type II-substrate-bound ferric CYP3A4 P450 states as described, [31].
as §5

[9] = biological target: CYP3A4 (C64/C468 mutant) (Homo sapiens, UniProt P08684, form not given/S18F); test: Ligand-induced spin shift, absorbance titration; type: binding; details: human, purified CYP3A4(C64/C468) mutant protein, pH 7.4
CYP3A4 (C64/C468 mutant), sequence (P08684 13-503 S18F, form open): as above
Procedure: as §1, §6, §5

[10] = biological target: CYP3A4 (double-labeled C64/C468-ER/DY) (Homo sapiens, UniProt P08684, form not given/S18F); test: Ligand-induced spin shift, absorbance titration; type: binding; details: human, purified double-labeled CYP3A4 C64/C468-ER/DY protein, pH 7.4
CYP3A4 (double-labeled C64/C468-ER/DY), sequence (P08684 13-503 S18F, form open): as above
Procedure: as §1, §6, §5

[11] = biological target: T2, double-labeled CYP3A4 (C64/C468)-ER/DY; test: Time-resolved LRET (phosphorescence lifetime measurements)
From the text: (§7) The excitation wavelength was set to 540 nm.

[12] = biological target: T3, double-labeled CYP3A4 (C64/C468)-DY/ER; test: as above
From the text: as §7

[13] = biological target: T4, double-labeled CYP3A4 C377/C468-DY/ER; test: as above
From the text: as §7

[14] = Table S1, protein (C64/C121)-ER/DY, same ligand concentrations
[15] = Table S2, protein C64/C121-ER/DY, same ligand concentrations
[16] = Table S2, C64/C468-ER/DY, same ligand concentrations
[17] = Table S2, C64/C468-DY/ER, same ligand concentrations
[18] = Table S1, (C64/C468)-ER/DY, same ligand concentrations
[19] = Table S1, (C64/C468)-DY/ER, same ligand concentrations
[20] = Table S1, protein (C377/C468)-ER/DY, same ligand concentrations
[21] = Table S2, protein C377/C468-ER/DY, same ligand concentrations

T1 sequence (P08684 with tags, fused parts or gaps S18F/C98S/A121C/C239S/C377S/C468A limits assumed): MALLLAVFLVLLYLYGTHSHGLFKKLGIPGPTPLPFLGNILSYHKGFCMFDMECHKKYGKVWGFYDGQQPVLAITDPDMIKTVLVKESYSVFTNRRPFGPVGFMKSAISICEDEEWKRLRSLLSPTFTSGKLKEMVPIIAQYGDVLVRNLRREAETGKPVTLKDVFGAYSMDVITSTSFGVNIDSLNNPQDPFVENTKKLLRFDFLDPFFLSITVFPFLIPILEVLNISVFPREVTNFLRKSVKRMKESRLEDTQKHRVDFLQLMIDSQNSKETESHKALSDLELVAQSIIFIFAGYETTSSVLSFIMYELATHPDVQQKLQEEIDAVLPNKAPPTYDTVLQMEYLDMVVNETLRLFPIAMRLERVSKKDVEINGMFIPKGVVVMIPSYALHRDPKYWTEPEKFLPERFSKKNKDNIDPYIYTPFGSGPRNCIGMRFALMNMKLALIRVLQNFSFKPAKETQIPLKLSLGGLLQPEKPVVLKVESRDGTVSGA

SMILES: C[C@]12CC[C@H]3[C@@H](CCC4=CC(=O)CC[C@@]43C)[C@@H]1CC[C@@H]2O [Testosterone, testosterone]
- R (interprobe distance with ligand), steady-state measurements [1]: 43.9 ± 0.5 Å
- ΔR, steady-state measurements [1]: 1.3 ± 0.5 Å
- τ1 (phosphorescence decay time with ligand) ([2]; Table S1, protein (C64/C121)-ER/DY, 1-PB 40 µM, ANF 100 µM, BCT 2.5 µM, cholesterol 100 µM, testosterone 100 µM, bi-exponential fit): 66 ± 9 µs
- F1 (fraction of first exponential) [2, 14]: 38 ± 4%
- τ2 (phosphorescence decay time with ligand) [2, 14]: 228 ± 23 µs
- τav (average phosphorescence lifetime with ligand) [2, 14]: 165 ± 9 µs
- R (interprobe distance with ligand), lifetime measurements [2, 15]: 36.9 ± 0.7 Å
- ΔR, lifetime measurements [2, 15]: 1.9 ± 0.7 Å
- Kd [3]: 16.4 ± 3.5 µM
- ΔR (change in interprobe distance), steady-state fluorescence ([4]; (C64/C468)-ER/DY): 3.1±1.0 Å
- R (interprobe distance with ligand), steady-state measurements [4, 16]: 42.2 ± 1.0 Å
- ΔR, steady-state measurements [4, 16]: 3.1 ± 1.0 Å
- ΔR (change in interprobe distance), steady-state fluorescence ([5]; (C64/C468)-DY/ER): 5.5±1.9 Å
- R (interprobe distance with ligand), steady-state measurements [5, 17]: 40.4 ± 1.9 Å
- ΔR, steady-state measurements [5, 17]: 5.5 ± 1.9 Å
- R (interprobe distance with ligand), steady-state measurements [6]: 46.7 ± 0.7 Å
- ΔR, steady-state measurements [6]: 2.0 ± 0.7 Å
- Kd [7]: 22.8 ± 3.6 µM
- Kd [8]: 51 ± 8 µM
- Kd [9]: 39 ± 10 µM
- Kd [10]: 38 ± 6 µM
- ΔR (change in interprobe distance), lifetime measurements ([11]; (C64/C468)-ER/DY, nearly-saturating ligand: ANF 100 µM, bromocriptine 2.5 µM, cholesterol 50 µM, testosterone 100 µM): 4.5±0.5 Å
- τ1 (phosphorescence decay time with ligand) ([11]; Table S1, (C64/C468)-ER/DY, 1-PB 40 µM, ANF 100 µM, BCT 2.5 µM, cholesterol 100 µM, testosterone 100 µM, bi-exponential fit): 67 ± 6 µs
- F1 (fraction of first exponential) [11, 18]: 48 ± 2%
- τ2 (phosphorescence decay time with ligand) [11, 18]: 267 ± 11 µs
- τav (average phosphorescence lifetime with ligand) [11, 18]: 171 ± 4 µs
- R (interprobe distance with ligand), lifetime measurements [11, 16]: 40.8 ± 0.6 Å
- ΔR, lifetime measurements [11, 16]: 4.5 ± 0.6 Å
- τ1 (phosphorescence decay time with ligand) ([12]; Table S1, (C64/C468)-DY/ER, 1-PB 40 µM, ANF 100 µM, BCT 2.5 µM, cholesterol 100 µM, testosterone 100 µM, bi-exponential fit): 69 ± 1 µs
- F1 (fraction of first exponential) [12, 19]: 39 ± 8%
- τ2 (phosphorescence decay time with ligand) [12, 19]: 247 ± 2 µs
- τav (average phosphorescence lifetime with ligand) [12, 19]: 176 ± 2 µs
- R (interprobe distance with ligand), lifetime measurements [12, 17]: 41.6 ± 0.3 Å
- ΔR, lifetime measurements [12, 17]: 4.8 ± 0.3 Å
- τ1 (phosphorescence decay time with ligand) ([13]; Table S1, protein (C377/C468)-ER/DY, 1-PB 40 µM, ANF 100 µM, BCT 2.5 µM, cholesterol 100 µM, testosterone 100 µM, bi-exponential fit): 42 ± 9 µs
- F1 (fraction of first exponential) [13, 20]: 26 ± 7%
- τ2 (phosphorescence decay time with ligand) [13, 20]: 193 ± 5 µs
- τav (average phosphorescence lifetime with ligand) [13, 20]: 152 ± 12 µs
- R (interprobe distance with ligand), lifetime measurements [13, 21]: 45.3 ± 3.0 Å
- ΔR, lifetime measurements [13, 21]: 8.5 ± 3.0 Å
